Source: patent publication US20140031278A1, “Novel Glucagon Analogues” (NOVO NORDISK A/S, priority 2011, published 2014)
*1 amine or outer side, *2 acyl side, *3 side chain or, on linkers, in order; H or OH if unused. Where a SMILES comes first, the peptide text is derived from it. Side-chain parts run from the residue outwards. γGlu = O=C(O)[C@H](CCC(=O)[*:2])N[*:1]

What follows are compounds tested against T1, glucagon receptor (Homo sapiens, UniProt P47871) (assay: Assay (I) Glucagon activity (cAMP biosensor, FLIPR)). Details: HEK-293 cells with cloned glucagon receptor and cAMP biosensor; end point after 6 minutes.
T1 construct: expressed in transfected cells
T1 sequence (P47871 26-477): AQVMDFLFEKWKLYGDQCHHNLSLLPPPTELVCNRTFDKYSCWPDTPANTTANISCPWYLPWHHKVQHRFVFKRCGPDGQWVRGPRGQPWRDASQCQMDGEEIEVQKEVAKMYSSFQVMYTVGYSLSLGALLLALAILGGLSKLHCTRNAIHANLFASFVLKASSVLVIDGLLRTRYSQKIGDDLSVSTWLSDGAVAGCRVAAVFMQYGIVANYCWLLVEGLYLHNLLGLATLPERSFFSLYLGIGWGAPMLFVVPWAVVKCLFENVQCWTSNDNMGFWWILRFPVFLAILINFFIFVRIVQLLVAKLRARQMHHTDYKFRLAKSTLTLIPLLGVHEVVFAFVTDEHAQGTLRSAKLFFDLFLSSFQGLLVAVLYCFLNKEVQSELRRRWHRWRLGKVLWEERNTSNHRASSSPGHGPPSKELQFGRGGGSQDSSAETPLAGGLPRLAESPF
Format: cell-based
Summary of the method: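 HEK-293 cells expressing glucagon receptor with membrane cAMP biosensor (ACTOne), calcium-dye loaded with probenecid and a PDE inhibitor.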

| Compound | EC50 |
| --- | --- |
| CC(=O)N[C@@H](CCC(=O)N[C@@H](CCC(=O)N[C@@H](CCC(=O)N[C@@H](CCC(=O)NCCCC[C@H](NC(=O)[C@@H](NC(=O)[C@H](Cc1ccccc1)NC(=O)[C@H](CC(=O)O)NC(=O)[C@H](CCC(N)=O)NC(=O)[C@H](C)NC(=O)[C@H](CCCNC(=N)N)NC(=O)[C@H](CCCNC(=N)N)NC(=O)[C@H](CC(C)C)NC(=O)[C@H](CC(=O)O)NC(=O)[C@H](CC(C)C)NC(=O)[C@H](Cc1ccc(O)cc1)NC(=O)[C@H](CCCCN)NC(=O)[C@H](CO)NC(=O)[C@H](Cc1ccc(O)cc1)NC(=O)[C@H](CC(=O)O)NC(=O)[C@H](CO)NC(=O)[C@@H](NC(=O)[C@H](Cc1ccccc1)NC(=O)[C@@H](NC(=O)CNC(=O)[C@H](CCC(N)=O)NC(=O)[C@H](CO)NC(=O)[C@@H](N)Cc1c[nH]cn1)[C@@H](C)O)[C@@H](C)O)C(C)C)C(=O)N[C@@H](Cc1c[nH]c2ccccc12)C(=O)N[C@@H](CC(C)C)C(=O)N[C@@H](CC(C)C)C(=O)N[C@@H](CO)C(=O)N[C@H](C(=O)O)[C@@H](C)O)C(=O)O)C(=O)O)C(=O)O)C(=O)O [Example 38, N^ε24-[(4S)-4-[[(4S)-4-[[(4S)-4-[[(4S)-4-acetamido-4-carboxybutanoyl]amino]-4-carboxybutanoyl]amino]-4-carboxybutanoyl]amino]-4-carboxybutanoyl]-[Leu16,Lys24,Leu27,Ser28]-Glucagon] | 2.9 pM |
| CC(=O)N[C@@H](CCC(=O)N[C@@H](CCC(=O)N[C@@H](CCC(=O)N[C@@H](CCC(=O)NCCCC[C@H](NC(=O)[C@@H](NC(=O)[C@H](Cc1ccccc1)NC(=O)[C@H](CC(=O)O)NC(=O)[C@H](CCC(N)=O)NC(=O)[C@H](C)NC(=O)[C@H](CCCNC(=N)N)NC(=O)[C@H](CCCNC(=N)N)NC(=O)[C@H](CC(C)C)NC(=O)[C@H](CC(=O)O)NC(=O)[C@H](CC(C)C)NC(=O)[C@H](Cc1ccc(O)cc1)NC(=O)[C@H](CCCNC(=N)N)NC(=O)[C@H](CO)NC(=O)[C@H](Cc1ccc(O)cc1)NC(=O)[C@H](CC(=O)O)NC(=O)[C@H](CO)NC(=O)[C@@H](NC(=O)[C@H](Cc1ccccc1)NC(=O)[C@@H](NC(=O)CNC(=O)[C@H](CCC(N)=O)NC(=O)[C@H](CO)NC(=O)[C@@H](N)Cc1c[nH]cn1)[C@@H](C)O)[C@@H](C)O)C(C)C)C(=O)N[C@@H](Cc1c[nH]c2ccccc12)C(=O)N[C@@H](CC(C)C)C(=O)N[C@@H](CC(C)C)C(=O)N[C@@H](CO)C(=O)N[C@H](C(=O)O)[C@@H](C)O)C(=O)O)C(=O)O)C(=O)O)C(=O)O [Example 39, N^ε24-[(4S)-4-[[(4S)-4-[[(4S)-4-[[(4S)-4-acetamido-4-carboxybutanoyl]amino]-4-carboxybutanoyl]amino]-4-carboxybutanoyl]amino]-4-carboxybutanoyl]-[Arg12,Leu16,Lys24,Leu27,Ser28]-Glucagon] (H-HSQGTFTSDYSRYLDLRRAQDFVK([γGlu-γGlu-γGlu-γGlu-Ac])WLLST-OH) | 3 pM |
| CC(=O)N[C@@H](CCC(=O)N[C@@H](CCC(=O)N[C@@H](CCC(=O)N[C@@H](CCC(=O)NCCCC[C@H](NC(=O)[C@@H](NC(=O)[C@H](Cc1ccccc1)NC(=O)[C@H](CC(=O)O)NC(=O)[C@H](CCC(N)=O)NC(=O)[C@H](C)NC(=O)[C@H](CCCNC(=N)N)NC(=O)[C@H](CCCNC(=N)N)NC(=O)[C@H](CC(C)C)NC(=O)[C@H](CC(=O)O)NC(=O)[C@H](CC(C)C)NC(=O)[C@H](Cc1ccc(O)cc1)NC(=O)[C@H](CCCCN)NC(=O)[C@H](CO)NC(=O)[C@H](Cc1ccc(O)cc1)NC(=O)[C@H](CC(=O)O)NC(=O)[C@H](CO)NC(=O)[C@@H](NC(=O)[C@H](Cc1ccccc1)NC(=O)[C@@H](NC(=O)CNC(=O)[C@H](CCC(N)=O)NC(=O)[C@H](C)NC(=O)[C@@H](N)Cc1c[nH]cn1)[C@@H](C)O)[C@@H](C)O)C(C)C)C(=O)N[C@@H](Cc1c[nH]c2ccccc12)C(=O)N[C@@H](CC(C)C)C(=O)N[C@@H](CC(C)C)C(=O)N[C@@H](CO)C(=O)N[C@H](C(=O)O)[C@@H](C)O)C(=O)O)C(=O)O)C(=O)O)C(=O)O [Example 42] (H-HAQGTFTSDYSKYLDLRRAQDFVK([γGlu-γGlu-γGlu-γGlu-Ac])WLLST-OH) | 8 pM |
| CC(=O)N[C@@H](CCC(=O)N[C@@H](CCC(=O)N[C@@H](CCC(=O)N[C@@H](CCC(=O)NCCCC[C@H](NC(=O)[C@@H](NC(=O)[C@H](Cc1ccccc1)NC(=O)[C@H](CC(=O)O)NC(=O)[C@H](CCC(N)=O)NC(=O)[C@H](C)NC(=O)[C@H](CCCNC(=N)N)NC(=O)[C@H](CCCNC(=N)N)NC(=O)[C@H](CC(C)C)NC(=O)[C@H](CC(=O)O)NC(=O)[C@H](CC(C)C)NC(=O)[C@H](Cc1ccc(O)cc1)NC(=O)[C@H](CCCCN)NC(=O)[C@H](CO)NC(=O)[C@@H](NC(=O)[C@H](CC(=O)O)NC(=O)[C@H](CO)NC(=O)[C@@H](NC(=O)[C@H](Cc1ccccc1)NC(=O)[C@@H](NC(=O)CNC(=O)[C@H](CCC(N)=O)NC(=O)[C@H](CO)NC(=O)[C@@H](N)Cc1c[nH]cn1)[C@@H](C)O)[C@@H](C)O)C(C)C)C(C)C)C(=O)N[C@@H](Cc1c[nH]c2ccccc12)C(=O)N[C@@H](CC(C)C)C(=O)N[C@@H](CC(C)C)C(=O)N[C@@H](CO)C(=O)N[C@H](C(=O)O)[C@@H](C)O)C(=O)O)C(=O)O)C(=O)O)C(=O)O [Example 43, N^ε24-[(4S)-4-[[(4S)-4-[[(4S)-4-[[(4S)-4-acetamido-4-carboxybutanoyl]amino]-4-carboxybutanoyl]amino]-4-carboxybutanoyl]amino]-4-carboxybutanoyl]-[Val^10,Leu^16,Lys^24,Leu^27,Ser^28]-Glucagon] (H-HSQGTFTSDVSKYLDLRRAQDFVK([γGlu-γGlu-γGlu-γGlu-Ac])WLLST-OH) | 16 pM |
| CC(=O)N[C@@H](CCC(=O)N[C@@H](CCC(=O)N[C@@H](CCC(=O)N[C@@H](CCC(=O)NCCCC[C@H](NC(=O)[C@@H](NC(=O)[C@H](Cc1ccccc1)NC(=O)[C@H](CC(=O)O)NC(=O)[C@H](CCC(N)=O)NC(=O)[C@H](C)NC(=O)[C@H](CCCNC(=N)N)NC(=O)[C@H](CCCNC(=N)N)NC(=O)[C@H](CO)NC(=O)[C@H](CCC(=O)O)NC(=O)[C@H](CC(C)C)NC(=O)[C@H](Cc1ccc(O)cc1)NC(=O)[C@H](CCCCN)NC(=O)[C@H](CO)NC(=O)[C@@H](NC(=O)[C@H](CC(=O)O)NC(=O)[C@H](CO)NC(=O)[C@@H](NC(=O)[C@H](Cc1ccccc1)NC(=O)[C@@H](NC(=O)CNC(=O)[C@H](CCC(N)=O)NC(=O)[C@H](CO)NC(=O)[C@@H](N)Cc1c[nH]cn1)[C@@H](C)O)[C@@H](C)O)C(C)C)C(C)C)C(=O)N[C@@H](Cc1c[nH]c2ccccc12)C(=O)N[C@@H](CC(C)C)C(=O)N[C@@H](CC(C)C)C(=O)N[C@@H](CO)C(=O)N[C@H](C(=O)O)[C@@H](C)O)C(=O)O)C(=O)O)C(=O)O)C(=O)O [Example 44, N^ε24-[(4S)-4-[[(4S)-4-[[(4S)-4-[[(4S)-4-acetamido-4-carboxybutanoyl]amino]-4-carboxybutanoyl]amino]-4-carboxybutanoyl]amino]-4-carboxybutanoyl]-[Val^10,Glu^15,Lys^24,Leu^27,Ser^28]-Glucagon] (H-HSQGTFTSDVSKYLESRRAQDFVK([γGlu-γGlu-γGlu-γGlu-Ac])WLLST-OH) | 75 pM |

More lines, now with the values ahead:

| EC50 | Compound |
| --- | --- |
| 3 pM | CC(=O)N[C@@H](CCC(=O)N[C@@H](CCC(=O)N[C@@H](CCC(=O)N[C@@H](CCC(=O)NCCCC[C@H](NC(=O)[C@@H](NC(=O)[C@H](Cc1ccccc1)NC(=O)[C@H](CC(=O)O)NC(=O)[C@H](CCC(N)=O)NC(=O)[C@H](C)NC(=O)[C@H](CCCNC(=N)N)NC(=O)[C@H](CCCNC(=N)N)NC(=O)[C@H](CC(C)C)NC(=O)[C@H](CC(=O)O)NC(=O)[C@H](CC(C)C)NC(=O)[C@H](Cc1ccc(O)cc1)NC(=O)[C@H](CCCNC(=N)N)NC(=O)[C@H](CO)NC(=O)[C@H](Cc1ccc(O)cc1)NC(=O)[C@H](CC(=O)O)NC(=O)[C@H](CO)NC(=O)[C@@H](NC(=O)[C@H](Cc1ccccc1)NC(=O)[C@@H](NC(=O)CNC(=O)[C@H](CCC(N)=O)NC(=O)[C@H](CO)NC(=O)[C@@H](N)Cc1c[nH]cn1)[C@@H](C)O)[C@@H](C)O)C(C)C)C(=O)N[C@@H](Cc1c[nH]c2ccccc12)C(=O)N[C@@H](CC(C)C)C(=O)N[C@@H](CC(C)C)C(=O)N[C@@H](CO)C(=O)N[C@H](C(=O)N1CCC[C@H]1C(=O)O)[C@@H](C)O)C(=O)O)C(=O)O)C(=O)O)C(=O)O [Example 40, N^ε24-[(4S)-4-[[(4S)-4-[[(4S)-4-[[(4S)-4-acetamido-4-carboxybutanoyl]amino]-4-carboxybutanoyl]amino]-4-carboxybutanoyl]amino]-4-carboxybutanoyl]-[Arg12,Leu16,Lys24,Leu27,Ser28]-Glucagonyl-Pro] (H-HSQGTFTSDYSRYLDLRRAQDFVK([γGlu-γGlu-γGlu-γGlu-Ac])WLLSTP-OH) |
| 3 pM | CC(=O)N[C@@H](CCC(=O)N[C@@H](CCC(=O)N[C@@H](CCC(=O)N[C@@H](CCC(=O)NCCCC[C@H](NC(=O)[C@@H](NC(=O)[C@H](Cc1ccccc1)NC(=O)[C@H](CC(=O)O)NC(=O)[C@H](CCC(N)=O)NC(=O)[C@H](C)NC(=O)[C@H](CCCNC(=N)N)NC(=O)[C@H](CCCNC(=N)N)NC(=O)[C@H](CC(C)C)NC(=O)[C@H](CC(=O)O)NC(=O)[C@H](CC(C)C)NC(=O)[C@H](Cc1ccc(O)cc1)NC(=O)[C@H](CCCCN)NC(=O)[C@H](CO)NC(=O)[C@H](Cc1ccc(O)cc1)NC(=O)[C@H](CC(=O)O)NC(=O)[C@H](CO)NC(=O)[C@@H](NC(=O)[C@H](Cc1ccccc1)NC(=O)[C@@H](NC(=O)CNC(=O)[C@H](CCC(N)=O)NC(=O)[C@@H](NC(=O)[C@@H](N)Cc1c[nH]cn1)[C@@H](C)O)[C@@H](C)O)[C@@H](C)O)C(C)C)C(=O)N[C@@H](Cc1c[nH]c2ccccc12)C(=O)N[C@@H](CC(C)C)C(=O)N[C@@H](CC(C)C)C(=O)N[C@@H](CO)C(=O)N[C@H](C(=O)O)[C@@H](C)O)C(=O)O)C(=O)O)C(=O)O)C(=O)O [Example 41, N^e24-[(4S)-4-[[(4S)-4-[[(4S)-4-[[(4S)-4-acetamido-4-carboxybutanoyl]amino]-4-carboxybutanoyl]amino]-4-carboxybutanoyl]amino]-4-carboxybutanoyl]-[Thr^2,Leu^16,Lys^24,Leu^27,Ser^28]-Glucagon] (H-HTQGTFTSDYSKYLDLRRAQDFVK([γGlu-γGlu-γGlu-γGlu-Ac])WLLST-OH) |
